Test: xn = mol fraction of the nth substance listed

COCCOCCOCCOC + CCOC(C)=O
viscosity [mPa·s], 101.3 kPa
Conditions | 298.15 K | 308.15 K | 318.15 K
x1 = 0.0071 | 0.436 | 0.391 | 0.358
x1 = 0.0233 | 0.454 | 0.406 | 0.369
x1 = 0.0549 | 0.488 | 0.434 | 0.395
x1 = 0.0836 | 0.522 | 0.464 | 0.417
x1 = 0.1198 | 0.564 | 0.498 | 0.447
x1 = 0.1684 | 0.626 | 0.548 | 0.489
x1 = 0.2665 | 0.752 | 0.651 | 0.574
x1 = 0.3217 | 0.833 | 0.717 | 0.624
x1 = 0.3905 | 0.931 | 0.796 | 0.69
x1 = 0.4265 | 0.985 | 0.841 | 0.725
x1 = 0.4683 | 1.058 | 0.895 | 0.769
x1 = 0.522 | 1.141 | 0.963 | 0.823
x1 = 0.5558 | 1.196 | 1.002 | 0.856
x1 = 0.6015 | 1.267 | 1.058 | 0.903
x1 = 0.6458 | 1.34 | 1.119 | 0.949
x1 = 0.725 | 1.479 | 1.223 | 1.028
x1 = 0.741 | 1.504 | 1.244 | 1.045
x1 = 0.7798 | 1.572 | 1.297 | 1.085
x1 = 0.8318 | 1.616 | 1.366 | 1.139
x1 = 0.8823 | 1.754 | 1.433 | 1.194
x1 = 0.9348 | 1.846 | 1.51 | 1.247
x1 = 0.9606 | 1.89 | 1.542 | 1.276

CC(C)(C)O + CN1CCCC1=O
298.15 K, 101 kPa
Conditions | viscosity [mPa·s]
x2 = 0.0522 | 4.027
x2 = 0.1107 | 3.478
x2 = 0.2046 | 2.892
x2 = 0.2528 | 2.676
x2 = 0.3034 | 2.494
x2 = 0.3557 | 2.342
x2 = 0.4023 | 2.234
x2 = 0.4562 | 2.13
x2 = 0.4773 | 2.095
x2 = 0.4998 | 2.064
x2 = 0.5605 | 1.981
x2 = 0.5966 | 1.942
x2 = 0.6533 | 1.885
x2 = 0.7046 | 1.842
x2 = 0.7461 | 1.809
x2 = 0.8029 | 1.775
x2 = 0.8498 | 1.745
x2 = 0.9007 | 1.719
x2 = 0.9581 | 1.688

CCC(O)CO (stereo unspecified) + CN1CCCC1=O
Conditions | viscosity [mPa·s]
298.15 K, 101.33 kPa, x2 = 0.0654 | 38.07
298.15 K, 101.33 kPa, x2 = 0.1029 | 31.55
298.15 K, 101.33 kPa, x2 = 0.2083 | 19.25
298.15 K, 101.33 kPa, x2 = 0.3075 | 12.65
298.15 K, 101.33 kPa, x2 = 0.3987 | 8.95
298.15 K, 101.33 kPa, x2 = 0.4992 | 6.384
298.15 K, 101.33 kPa, x2 = 0.5997 | 4.714
298.15 K, 101.33 kPa, x2 = 0.6958 | 3.61
298.15 K, 101.33 kPa, x2 = 0.8118 | 2.663
298.15 K, 101.33 kPa, x2 = 0.9111 | 2.083
298.15 K, 101.33 kPa, x2 = 0.9632 | 1.837
308.15 K, 101 kPa, x1 = 0.0282 | 1.835
308.15 K, 101 kPa, x1 = 0.0564 | 2.019
308.15 K, 101 kPa, x1 = 0.1026 | 2.039
308.15 K, 101 kPa, x1 = 0.1884 | 2.067
308.15 K, 101 kPa, x1 = 0.3027 | 3.253
308.15 K, 101 kPa, x1 = 0.4056 | 3.955
308.15 K, 101 kPa, x1 = 0.4941 | 4.933
308.15 K, 101 kPa, x1 = 0.6024 | 6.647
308.15 K, 101 kPa, x1 = 0.6843 | 8.612
308.15 K, 101 kPa, x1 = 0.7939 | 12.61
308.15 K, 101 kPa, x1 = 0.888 | 17.95
308.15 K, 101 kPa, x1 = 0.9396 | 22.95
308.15 K, 101 kPa, x1 = 0.9764 | 27.1
308.15 K, 101.33 kPa, x2 = 0.05493 | 22.04
308.15 K, 101.33 kPa, x2 = 0.1102 | 17.39
308.15 K, 101.33 kPa, x2 = 0.1762 | 13.32
308.15 K, 101.33 kPa, x2 = 0.2999 | 8.57
308.15 K, 101.33 kPa, x2 = 0.3972 | 6.231
308.15 K, 101.33 kPa, x2 = 0.4977 | 4.671
308.15 K, 101.33 kPa, x2 = 0.6026 | 3.551
308.15 K, 101.33 kPa, x2 = 0.6974 | 2.829
308.15 K, 101.33 kPa, x2 = 0.8019 | 2.225
308.15 K, 101.33 kPa, x2 = 0.9106 | 1.745
308.15 K, 101.33 kPa, x2 = 0.9521 | 1.595
318.15 K, 101.33 kPa, x2 = 0.05598 | 13.51
318.15 K, 101.33 kPa, x2 = 0.1062 | 11.16
318.15 K, 101.33 kPa, x2 = 0.2044 | 7.948
318.15 K, 101.33 kPa, x2 = 0.2997 | 5.996
318.15 K, 101.33 kPa, x2 = 0.4011 | 4.469
318.15 K, 101.33 kPa, x2 = 0.4992 | 3.505
318.15 K, 101.33 kPa, x2 = 0.6003 | 2.789
318.15 K, 101.33 kPa, x2 = 0.702 | 2.252
318.15 K, 101.33 kPa, x2 = 0.8041 | 1.83
318.15 K, 101.33 kPa, x2 = 0.9081 | 1.49
318.15 K, 101.33 kPa, x2 = 0.951 | 1.373

Nc1ccccc1 + CN1CCCC1=O
viscosity [mPa·s], 101 kPa
Conditions | x2 = 0.0954 | x2 = 0.1918 | x2 = 0.2892 | x2 = 0.3876 | x2 = 0.487 | x2 = 0.5875 | x2 = 0.689 | x2 = 0.7915 | x2 = 0.8952
303.15 K | 2.963 | 2.89 | 2.81 | 2.705 | 2.55 | 2.34 | 2.15 | 1.964 | 1.76
308.15 K | 2.57 | 2.51 | 2.445 | 2.34 | 2.187 | 2.035 | 1.875 | 1.736 | 1.571
313.15 K | 2.25 | 2.2 | 2.13 | 2.05 | 1.95 | 1.83 | 1.7 | 1.58 | 1.445
318.15 K | 1.99 | 1.94 | 1.89 | 1.825 | 1.735 | 1.623 | 1.52 | 1.417 | 1.309

C1COCCOCCOCCOCCO1 + CN(C)C=O
101 kPa
Conditions | viscosity [mPa·s]
293.15 K, x1 = 0.00344 | 0.8668
293.15 K, x1 = 0.0059 | 0.8771
293.15 K, x1 = 0.008679 | 0.8888
293.15 K, x1 = 0.01131 | 0.8997
293.15 K, x1 = 0.01335 | 0.9089
293.15 K, x1 = 0.01528 | 0.9166
298.15 K, x1 = 0.003438 | 0.8165
298.15 K, x1 = 0.006613 | 0.8287
298.15 K, x1 = 0.009181 | 0.8386
298.15 K, x1 = 0.01161 | 0.8485
298.15 K, x1 = 0.0137 | 0.8568
298.15 K, x1 = 0.01547 | 0.8639
303.15 K, x1 = 0.002196 | 0.7595
303.15 K, x1 = 0.004812 | 0.7687
303.15 K, x1 = 0.006882 | 0.7758
303.15 K, x1 = 0.008916 | 0.7832
303.15 K, x1 = 0.01094 | 0.7907
303.15 K, x1 = 0.01259 | 0.797
308.15 K, x1 = 0.003532 | 0.7213
308.15 K, x1 = 0.006367 | 0.7307
308.15 K, x1 = 0.008768 | 0.7387
308.15 K, x1 = 0.01108 | 0.7463
308.15 K, x1 = 0.01321 | 0.7538
308.15 K, x1 = 0.01506 | 0.7599

CCC(O)CO (stereo unspecified) + CN(C)C=O
308.15 K, 101 kPa
Conditions | viscosity [mPa·s]
x1 = 0.0519 | 0.748
x1 = 0.1008 | 0.855
x1 = 0.2013 | 1.113
x1 = 0.2983 | 1.444
x1 = 0.4099 | 2.065
x1 = 0.4883 | 2.645
x1 = 0.5694 | 3.576
x1 = 0.7139 | 7.387
x1 = 0.8896 | 16.22
x1 = 0.9489 | 21.9

— the CheMixHub viscosity set
